Reference: patent US10287301B2 (Achillion Pharmaceuticals, Inc., priority 2015, dated 2019)

molecular target: Human Factor D (Homo sapiens (Human), UniProt P00746); assay: Human Factor D Assay; type: biochemical; details: Table 3; Human Factor D 80 nM, substrate Z-L-Lys-SBzl; read-out: IC50 (Stars)
Procedure, shortened: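 Thioester cleavage assay: human Factor D (serum-derived, 80 nM final), substrate Z-L-Lys-SBzl with DTNB, both 100 μM final, after 5 min compound preincubation at room temperature.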

Human Factor D, sequence (P00746 26-253): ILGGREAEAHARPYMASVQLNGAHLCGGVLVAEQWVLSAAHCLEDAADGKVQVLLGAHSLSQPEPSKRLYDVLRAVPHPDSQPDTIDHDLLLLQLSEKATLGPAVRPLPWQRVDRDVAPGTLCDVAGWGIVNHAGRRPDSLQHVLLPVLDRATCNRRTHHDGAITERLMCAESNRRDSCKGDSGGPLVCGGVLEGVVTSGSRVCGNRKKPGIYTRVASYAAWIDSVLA

| Compound | IC50 |
| --- | --- |
| COc1cc2c(cc1-c1cnc(C)nc1)c(C(C)=O)nn2CC(=O)N1C[C@H](F)C[C@H]1C(=O)Nc1cccc(Br)n1 [Compound 373, (2S,4R)-1-(2-(3-Acetyl-6-methoxy-5-(2-methylpyrimidin-5-yl)-1H-indazol-1-yl)acetyl)-N-(6-bromopyridin-2-yl)-4-fluoropyrrolidine-2-carboxamide] | < 1 µM |
| CC(=O)c1nn(CC(=O)N2C[C@H](F)C[C@H]2C(=O)Nc2cccc(Br)n2)c2ccc(-c3cnc(CO)nc3)cc12 [Compound 374, (2S,4R)-1-(2-(3-Acetyl-5-(2-(hydroxymethyl)pyrimidin-5-yl)-1H-indazol-1-yl)acetyl)-N-(6-bromopyridin-2-yl)-4-fluoropyrrolidine-2-carboxamide] | < 1 µM |
| CC(=O)c1nn(CC(=O)N2[C@@H]3C[C@@H]3C[C@H]2C(=O)Nc2cncc(Cl)n2)c2ccc(-c3cnc(C)nc3)cc12 [Compound 375, (1R,3S,5R)-2-(2-(3-Acetyl-5-(2-methylpyrimidin-5-yl)-1H-indazol-1-yl)acetyl)-N-(6-chloropyrazin-2-yl)-2-azabicyclo[3.1.0]hexane-3-carboxamide] | < 1 µM |
| CC(=O)c1nn(CC(=O)N2C[C@H](F)C[C@H]2C(=O)Nc2ccnc(OCC(F)(F)F)n2)c2ccc(-c3cnc(C)nc3)cc12 [Compound 377, (2S,4R)-1-(2-(3-Acetyl-5-(2-methylpyrimidin-5-yl)-1H-indazol-1-yl)acetyl)-4-fluoro-N-(2-(2,2,2-trifluoroethoxy)pyrimidin-4-yl)pyrrolidine-2-carboxamide] | < 1 µM |
| CC(=O)c1nn(CC(=O)N2C[C@H](F)C[C@H]2C(=O)Nc2ncn(CC(F)(F)F)n2)c2ccc(-c3cnc(C)nc3)cc12 [Compound 378, (2S,4R)-1-(2-(3-Acetyl-5-(2-methylpyrimidin-5-yl)-1H-indazol-1-yl)acetyl)-4-fluoro-N-(1-(2,2,2-trifluoroethyl)-1H-1,2,4-triazol-3-yl)pyrrolidine-2-carboxamide] | < 1 µM |
| CNc1ncc(-c2ccc3c(c2)c(C(C)=O)nn3CC(=O)N2[C@@H]3C[C@@H]3C[C@H]2C(=O)Nc2cncc(Br)n2)cn1 [Compound 379, (1R,3S,5R)-2-(2-(3-Acetyl-5-(2-(methylamino)pyrimidin-5-yl)-1H-indazol-1-yl)acetyl)-N-(6-bromopyrazin-2-yl)-2-azabicyclo[3.1.0]hexane-3-carboxamide] | < 1 µM |
| CC(=O)c1nn(CC(=O)N2[C@@H]3C[C@@H]3C[C@H]2C(=O)Nc2cncc(Br)n2)c2ccc(-c3cnc(NC4CC4)nc3)cc12 [Compound 380, (1R,3S,5R)-2-(2-(3-Acetyl-5-(2-(cyclopropylamino)pyrimidin-5-yl)-1H-indazol-1-yl)acetyl)-N-(6-bromopyrazin-2-yl)-2-azabicyclo[3.1.0]hexane-3-carboxamide] | < 1 µM |
| CC(=O)c1nn(CC(=O)N2C[C@H](F)C[C@H]2C(=O)Nc2cc(Br)n(C)n2)c2ccc(-c3cnc(C)nc3)cc12 [Compound 381, (2S,4R)-1-(2-(3-Acetyl-5-(2-methylpyrimidin-5-yl)-1H-indazol-1-yl)acetyl)-N-(5-bromo-1-methyl-1H-pyrazol-3-yl)-4-fluoropyrrolidine-2-carboxamide] | < 1 µM |
| CC(=O)c1nn(CC(=O)N2[C@H]3C[C@@]3(C)C[C@H]2C(=O)Nc2cccc(Br)n2)c2ccc(-c3cnc(C)nc3)cc12 [Compound 382, (1S,3S,5S)-2-(2-(3-Acetyl-5-(2-methylpyrimidin-5-yl)-1H-indazol-1-yl)acetyl)-N-(6-bromopyridin-2-yl)-5-methyl-2-azabicyclo[3.1.0]hexane-3-carboxamide] | < 1 µM |

same assay, conditions: read-out: IC50 (Stars)

| Compound | IC50 |
| --- | --- |
| Cc1ncc(-c2ccc3c(c2)c(C(C)O)nn3CC(=O)N2C[C@H](F)C[C@H]2C(=O)Nc2cccc(Br)n2)cn1 (stereo partly drawn) [Compound 376, (2S,4R)-N-(6-bromopyridin-2-yl)-4-fluoro-1-(2-(3-(1-hydroxyethyl)-5-(2-methylpyrimidin-5-yl)-1H-indazol-1-yl)acetyl)pyrrolidine-2-carboxamide] | 1 to 10 µM |
